Where only a bound is given, the exact number is not on record here.

IC50 data for 16 molecules are collected here from patent publication US20130040983A1, “RAF KINASE INHIBITORS” (priority 2010, published 2013).

V600E mutated B-RAF, sequence (P15056 whole entry V600E): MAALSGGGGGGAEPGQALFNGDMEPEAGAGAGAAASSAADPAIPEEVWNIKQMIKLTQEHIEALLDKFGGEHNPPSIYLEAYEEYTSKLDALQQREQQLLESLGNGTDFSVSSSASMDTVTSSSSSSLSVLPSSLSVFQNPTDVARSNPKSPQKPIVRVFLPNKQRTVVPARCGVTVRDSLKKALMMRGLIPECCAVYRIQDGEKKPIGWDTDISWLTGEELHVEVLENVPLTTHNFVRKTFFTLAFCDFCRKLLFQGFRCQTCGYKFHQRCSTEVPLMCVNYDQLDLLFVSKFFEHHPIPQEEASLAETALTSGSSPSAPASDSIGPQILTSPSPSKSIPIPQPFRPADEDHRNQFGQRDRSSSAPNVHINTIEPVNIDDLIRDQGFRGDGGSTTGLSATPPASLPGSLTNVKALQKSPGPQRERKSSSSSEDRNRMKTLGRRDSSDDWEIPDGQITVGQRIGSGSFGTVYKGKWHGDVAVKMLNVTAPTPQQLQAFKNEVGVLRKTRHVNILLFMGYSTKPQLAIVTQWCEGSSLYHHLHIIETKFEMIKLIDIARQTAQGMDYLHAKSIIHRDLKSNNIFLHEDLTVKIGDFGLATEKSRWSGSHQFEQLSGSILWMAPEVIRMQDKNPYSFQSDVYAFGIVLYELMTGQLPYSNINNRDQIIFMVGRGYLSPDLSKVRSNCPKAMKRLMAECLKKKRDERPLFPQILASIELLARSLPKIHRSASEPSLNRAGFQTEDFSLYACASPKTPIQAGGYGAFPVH

In the first assay the target is V600E mutated B-RAF (Homo sapiens, UniProt P15056, V600E). The assay can be described thus: In vitro assay for inhibition of mutant B-RAF kinase (recombinant V600E B-RAF, MEK (K97R) substrate). The class given is biochemical. The settings on record: 10 nM recombinant V600E B-RAF, 1 μM MEK (K97R) substrate; class symbols; read-out: IC50 (μM) V600E B-Raf. The protocol:
(§1) The ability of compounds described herein to inhibit RAF kinase activity was determined from biochemical kinase assays using recombinant RAF proteins as known in the art.
(§2) Solutions of varying concentrations of test compounds or vehicle were added to 10 nM recombinant wild-type B-RAF or V600E mutated B-RAF proteins incubated in the presence of different concentrations of ATP and 1 μM MEK (K97R) as substrate, as previously described (Wilhelm, S. M., et al., Cancer Res., 64: 7099-7109, 2004; Mason, C. S., et al., EMBO J. 18: 2137-2148, 1999; Marais, R., et al., J. Biol. Chem., 272: 4378-4383, 1997). At least triplicate determinations for each individual test compound concentration were made and data plotted as mean±standard deviation relative to the control vehicle.
The term IC50 denotes the concentration that inhibits the measured activity by half. `O=C(O)c1cccc(-c2[nH]c(-c3ccccc3)nc2-c2ccncc2)c1` [Example 1, 3-(2-phenyl-4-(pyridin-4-yl)-1H-imidazol-5-yl)benzoic acid]: the IC50 was 0.1 to 1 µM.
With `O=C(O)c1cccc(-c2cn(-c3ccccc3)nc2-c2ccncc2)c1` [Example 3, 3-(1-phenyl-3-(pyridin-4-yl)-1H-pyrazol-4-yl)benzoic acid], the IC50 lay within 0.1 to 1 µM.
Same read-out and setting: as for `CCS(=O)(=O)Nc1cccc(-c2[nH]c(-c3ccccc3)nc2-c2ccncc2)c1` [Example 4, N-(3-(2-phenyl-4-(pyridin-4-yl)-1H-imidazol-5-yl)phenyl)ethanesulfonamide], the figure is 1 to 10 µM.
The same measure, in the same setting: next, `CCCS(=O)(=O)Nc1cccc(-c2[nH]c(-c3ccccc3)nc2-c2ccncc2)c1` [Example 5, N-(3-(2-phenyl-4-(pyridin-4-yl)-1H-imidazol-5-yl)phenyl)propane-1-sulfonamide]: 1 to 10 µM; `O=C(O)c1cc(F)cc(-c2[nH]c(-c3ccccc3)nc2-c2ccncc2)c1` [Example 6, 3-fluoro-5-(2-phenyl-4-(pyridin-4-yl)-1H-imidazol-5-yl)benzoic acid]: 0.1 to 1 µM.
On to `O=C(O)c1cc(-c2[nH]c(-c3ccccc3)nc2-c2ccncc2)ccc1F` [Example 7, 2-fluoro-5-(2-phenyl-4-(pyridin-4-yl)-1H-imidazol-5-yl)benzoic acid], for which the IC50 was in the range of 0.1 to 1 µM.
Still for that read-out and setting: next, `O=C(O)c1cccc(-c2[nH]c(-c3ccccc3)nc2-c2ccncc2)c1F` [Example 8, 2-fluoro-3-(2-phenyl-4-(pyridin-4-yl)-1H-imidazol-5-yl)benzoic acid]: 0.1 to 1 µM.
Turning to `O=C(O)c1ccc(F)c(-c2[nH]c(-c3ccccc3)nc2-c2ccncc2)c1` [Example 9, 4-fluoro-3-(2-phenyl-4-(pyridin-4-yl)-1H-imidazol-5-yl)benzoic acid], the IC50 fell in the range of 1 to 10 µM.
Still for that read-out and setting: as for `O=C(O)c1cc(-c2[nH]c(-c3ccccc3)nc2-c2ccncc2)ccc1Cl` [Example 10, 2-chloro-5-(2-phenyl-4-(pyridin-4-yl)-1H-imidazol-5-yl)benzoic acid], the figure is less than 0.1 µM.
The same measure, in the same setting: as for `CS(=O)(=O)Nc1cc(-c2[nH]c(-c3ccccc3)nc2-c2ccncc2)ccc1Cl` [Example 12, N-(2-chloro-5-(2-phenyl-4-(pyridin-4-yl)-1H-imidazol-5-yl)phenyl)methanesulfonamide], the figure is 0.1 to 1 µM.
On the same count and under the same terms, as for `O=C(O)c1cccc(-c2nn(-c3ccccc3)cc2-c2ccncc2)c1` [Example 13, 3-(1-phenyl-4-(pyridin-4-yl)-1H-pyrazol-3-yl)benzoic acid], the figure is 0.1 to 1 µM.
For `O=C(O)c1cc(Cl)cc(-c2[nH]c(-c3ccccc3)nc2-c2ccncc2)c1` [Example 14, 3-chloro-5-(2-phenyl-4-(pyridin-4-yl)-1H-imidazol-5-yl)benzoic acid], the IC50 is 0.1 to 1 µM.
Regarding `O=C(O)c1cc(-c2cn(-c3ccccc3)nc2-c2ccncc2)ccc1Cl` [Example 15, 2-chloro-5-(1-phenyl-3-(pyridin-4-yl)-1H-pyrazol-4-yl)benzoic acid], the IC50 is less than 0.1 µM.
Same read-out and setting: next, `NC(=O)c1cccc(-c2[nH]c(-c3ccccc3)nc2-c2ccncc2)c1` [Example 21, 3-(2-phenyl-4-(pyridin-4-yl)-1H-imidazol-5-yl)benzamide]: 1 to 10 µM; `Cc1ccc(-c2[nH]c(-c3ccccc3)nc2-c2ccncc2)cc1C(=O)O` [Example 27, 2-methyl-5-(2-phenyl-4-(pyridin-4-yl)-1H-imidazol-5-yl)benzoic acid]: 0.1 to 1 µM.

Staying with this assay, now noted: 10 nM recombinant V600E B-RAF, 1 μM MEK (K97R) substrate; read-out: BRAF-V600E IC50.
`O=C(O)c1cccc(-c2[nH]c(-c3ccccc3)nc2-c2ccncc2)c1` [Example 1, 3-(2-phenyl-4-(pyridin-4-yl)-1H-imidazol-5-yl)benzoic acid]: the IC50 came to 0.13 µM.

The target in a further assay is wild-type B-RAF (Homo sapiens, UniProt P15056). The assay can be described thus: In vitro assay for inhibition of B-RAF kinase (recombinant wild-type B-RAF, MEK (K97R) substrate). The class given is biochemical. The settings on record: 10 nM recombinant wild-type B-RAF, 1 μM MEK (K97R) substrate; read-out: BRAF IC50. The protocol: as §1
wild-type B-RAF, sequence (P15056 whole entry): as the sequence (P15056 whole entry V600E) above, with E600V counted along it
as §2, with “A-RAF, wild-type B-RAF,” for “B-RAF”, “wild-type C-RAF” for “V600E mutated B-RAF”
as §2
With `O=C(O)c1cccc(-c2[nH]c(-c3ccccc3)nc2-c2ccncc2)c1` [Example 1, 3-(2-phenyl-4-(pyridin-4-yl)-1H-imidazol-5-yl)benzoic acid], the IC50 turned out to be 3100 nM.
As for `CS(=O)(=O)Nc1cccc(-c2[nH]c(-c3ccccc3)nc2-c2ccncc2)c1` [Example 2, N-(3-(2-phenyl-4-(pyridin-4-yl)-1H-imidazol-5-yl)phenyl)methanesulfonamide], the IC50 was found to be 800 nM.
